These are literature values, as cited in patent publication US12318448B2, “Use of TLR agonist and anti-CD47 agent to enhance phagocytosis of cancer cells” (The Board of Trustees of the Leland Stanford Junior …, priority 2015, dated 2025).

For the data set, the target named is T1, TLR7 (Homo sapiens, UniProt Q9NYK1).
T1 sequence (Q9NYK1 27-1049): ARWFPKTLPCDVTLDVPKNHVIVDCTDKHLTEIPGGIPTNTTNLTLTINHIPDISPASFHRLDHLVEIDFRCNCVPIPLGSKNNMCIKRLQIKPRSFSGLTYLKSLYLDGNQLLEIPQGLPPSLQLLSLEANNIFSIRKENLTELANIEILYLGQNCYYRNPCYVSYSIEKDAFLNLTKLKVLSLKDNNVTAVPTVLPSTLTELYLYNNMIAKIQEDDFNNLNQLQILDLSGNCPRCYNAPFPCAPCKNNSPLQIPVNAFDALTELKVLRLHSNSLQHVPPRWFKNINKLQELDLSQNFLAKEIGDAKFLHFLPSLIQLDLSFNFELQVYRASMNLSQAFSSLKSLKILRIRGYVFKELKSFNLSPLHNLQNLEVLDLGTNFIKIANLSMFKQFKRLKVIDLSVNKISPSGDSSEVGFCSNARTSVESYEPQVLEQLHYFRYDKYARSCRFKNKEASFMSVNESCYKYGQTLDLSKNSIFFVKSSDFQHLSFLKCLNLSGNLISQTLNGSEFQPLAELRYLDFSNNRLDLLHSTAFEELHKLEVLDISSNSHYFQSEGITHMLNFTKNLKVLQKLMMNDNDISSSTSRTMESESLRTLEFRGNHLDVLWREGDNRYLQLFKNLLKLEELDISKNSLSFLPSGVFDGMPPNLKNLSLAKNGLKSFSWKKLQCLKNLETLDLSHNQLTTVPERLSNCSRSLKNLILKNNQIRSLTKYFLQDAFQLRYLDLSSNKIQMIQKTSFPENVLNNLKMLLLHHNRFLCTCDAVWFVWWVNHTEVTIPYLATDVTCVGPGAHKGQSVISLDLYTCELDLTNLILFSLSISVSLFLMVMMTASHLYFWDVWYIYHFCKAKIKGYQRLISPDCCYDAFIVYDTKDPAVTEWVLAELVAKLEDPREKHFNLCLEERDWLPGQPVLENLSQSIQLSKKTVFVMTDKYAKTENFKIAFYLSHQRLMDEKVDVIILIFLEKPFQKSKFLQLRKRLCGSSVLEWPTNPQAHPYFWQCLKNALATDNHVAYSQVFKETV
The following applies: administered parenterally as monotherapy; cited from earlier work.

On to `CCc1nc2c(N)nc3ccccc3c2n1CCCCNS(C)(=O)=O` [852A], for which the clinical efficacy entry was “modest clinical efficacy with disease stabilization”.
